In ChEMBL document CHEMBL1201862, “PubChem BioAssay data set” (2004):
Values belong to the compound of their own block, whether it stands above or below them. Activity calls are given as the source filed them.

Experiments:
[1] = blockers of bursicon-stimulated LGR2 cAMP reporter – cell-based, HEK293, CRE-luciferase reporter, cherry pick, set 2, dose response (AID 743343); format: functional;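 also: transfected cells were stimulated with diluted bursicon conditioned medium after compound addition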
[2] = viability loss in HEK293 cells – cell-based, plate reader, cherry-picked samples, cytotoxicity control, dose response (AID 743446); format: functional
[3] = A549 cell cytotoxicity, dose response, cytotoxicity control, plate reader, cherry-pick, antagonist series (AID 743412); format: functional, cell-based
[4] = blockade of melanocortin 4 receptor signaling – cell-based, plate reader, cherry pick, counter-screen for LGR2 antagonist project, dose response (AID 743444); format: functional;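 also: transfected HEK 293 cells stimulated with alpha-MSH peptide; potency of inhibitors of the alpha-MSH evoked signal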
[5] = target: Heat shock protein HSP 90-alpha (Homo sapiens, UniProt P07900); format: functional, organism-based
[6] = target: Cytochrome P450 3A4 (Homo sapiens, UniProt P08684);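 also: CYP3A4 tested as one member of a cytochrome P450 panel screen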
Sequence of Cytochrome P450 3A4 (P08684 whole entry): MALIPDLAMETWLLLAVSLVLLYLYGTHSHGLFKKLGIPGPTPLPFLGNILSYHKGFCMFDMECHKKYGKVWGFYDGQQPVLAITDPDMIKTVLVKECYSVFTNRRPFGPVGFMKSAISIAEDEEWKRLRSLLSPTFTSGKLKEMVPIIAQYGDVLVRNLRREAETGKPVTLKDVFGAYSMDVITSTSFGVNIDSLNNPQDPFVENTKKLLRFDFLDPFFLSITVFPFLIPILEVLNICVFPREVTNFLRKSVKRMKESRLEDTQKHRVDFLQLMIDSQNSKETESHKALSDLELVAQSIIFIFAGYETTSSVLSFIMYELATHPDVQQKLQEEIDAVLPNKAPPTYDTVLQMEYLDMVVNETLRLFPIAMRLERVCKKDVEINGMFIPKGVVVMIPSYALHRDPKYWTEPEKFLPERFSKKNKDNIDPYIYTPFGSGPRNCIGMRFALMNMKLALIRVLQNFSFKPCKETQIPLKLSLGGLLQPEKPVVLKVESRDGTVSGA

[7] = target: Cytochrome P450 2C9 (Homo sapiens, UniProt P11712)
Sequence of Cytochrome P450 2C9 (P11712 whole entry): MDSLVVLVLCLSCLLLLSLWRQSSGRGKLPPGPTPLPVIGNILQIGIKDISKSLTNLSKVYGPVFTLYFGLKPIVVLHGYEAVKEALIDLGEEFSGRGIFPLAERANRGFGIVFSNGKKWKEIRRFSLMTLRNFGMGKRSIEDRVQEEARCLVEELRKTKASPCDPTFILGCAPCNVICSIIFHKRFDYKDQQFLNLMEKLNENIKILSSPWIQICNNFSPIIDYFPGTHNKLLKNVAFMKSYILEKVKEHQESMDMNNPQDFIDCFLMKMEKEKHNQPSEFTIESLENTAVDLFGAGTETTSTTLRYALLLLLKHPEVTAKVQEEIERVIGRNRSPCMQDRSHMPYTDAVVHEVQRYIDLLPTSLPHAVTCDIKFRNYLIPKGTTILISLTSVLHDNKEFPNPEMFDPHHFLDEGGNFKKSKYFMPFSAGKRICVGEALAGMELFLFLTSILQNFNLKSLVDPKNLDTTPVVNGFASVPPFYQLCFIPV

[8] = target: Cytochrome P450 2C19 (Homo sapiens, UniProt P33261); assay: Cytochrome panel assay with activity outcomes. Panel member name: p450-cyp2c19 Compounds with AC50 equal or less than 10 uM are considered active; format: functional; conditions: read-out: AC50
Sequence of Cytochrome P450 2C19 (P33261 whole entry): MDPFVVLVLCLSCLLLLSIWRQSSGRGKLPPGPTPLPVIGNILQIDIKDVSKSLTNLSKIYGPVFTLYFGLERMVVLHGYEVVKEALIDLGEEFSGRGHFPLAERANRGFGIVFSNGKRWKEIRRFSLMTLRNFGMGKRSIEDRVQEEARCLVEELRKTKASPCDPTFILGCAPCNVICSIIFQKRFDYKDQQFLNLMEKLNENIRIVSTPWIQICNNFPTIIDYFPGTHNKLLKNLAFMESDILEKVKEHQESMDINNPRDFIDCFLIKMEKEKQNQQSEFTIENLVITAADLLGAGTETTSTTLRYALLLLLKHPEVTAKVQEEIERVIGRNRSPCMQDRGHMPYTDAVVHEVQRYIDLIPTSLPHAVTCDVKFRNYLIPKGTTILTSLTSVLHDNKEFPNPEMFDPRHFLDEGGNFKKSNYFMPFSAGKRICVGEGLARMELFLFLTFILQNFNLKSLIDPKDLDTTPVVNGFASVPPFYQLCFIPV

[9] = target: G-protein coupled receptor 55 (Homo sapiens, UniProt Q9Y2T6); assay: inhibition of LPI-stimulated GPR55 beta-arrestin translocation – imaging, U2OS, beta-arrestin-GFP, LPI agonist, primary screen (AID 2013); format: functional;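 also: antagonist potency measured as reduced agonist-driven arrestin aggregation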
Sequence of G-protein coupled receptor 55 (Q9Y2T6 whole entry): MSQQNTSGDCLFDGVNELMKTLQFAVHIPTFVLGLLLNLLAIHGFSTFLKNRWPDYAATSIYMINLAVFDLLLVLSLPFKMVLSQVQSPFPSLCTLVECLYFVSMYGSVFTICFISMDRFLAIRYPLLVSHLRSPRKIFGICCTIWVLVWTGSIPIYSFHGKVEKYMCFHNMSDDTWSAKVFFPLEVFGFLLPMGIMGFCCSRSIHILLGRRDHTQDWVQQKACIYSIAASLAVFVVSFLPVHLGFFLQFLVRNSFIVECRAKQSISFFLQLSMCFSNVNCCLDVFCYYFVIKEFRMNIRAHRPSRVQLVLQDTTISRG

[10] = target: T1, Fatty acid synthase (Homo sapiens, UniProt P49327); assay: inhibition of human FAS-TE enzyme activity – biochemical, kinetic fluorescence intensity, dose response (AID 624326); format: functional;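 also: rate of fluorescence rise from hydrolysis of a fluorogenic O-methyl fluorescein ester substrate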
T1 sequence (P49327 whole entry): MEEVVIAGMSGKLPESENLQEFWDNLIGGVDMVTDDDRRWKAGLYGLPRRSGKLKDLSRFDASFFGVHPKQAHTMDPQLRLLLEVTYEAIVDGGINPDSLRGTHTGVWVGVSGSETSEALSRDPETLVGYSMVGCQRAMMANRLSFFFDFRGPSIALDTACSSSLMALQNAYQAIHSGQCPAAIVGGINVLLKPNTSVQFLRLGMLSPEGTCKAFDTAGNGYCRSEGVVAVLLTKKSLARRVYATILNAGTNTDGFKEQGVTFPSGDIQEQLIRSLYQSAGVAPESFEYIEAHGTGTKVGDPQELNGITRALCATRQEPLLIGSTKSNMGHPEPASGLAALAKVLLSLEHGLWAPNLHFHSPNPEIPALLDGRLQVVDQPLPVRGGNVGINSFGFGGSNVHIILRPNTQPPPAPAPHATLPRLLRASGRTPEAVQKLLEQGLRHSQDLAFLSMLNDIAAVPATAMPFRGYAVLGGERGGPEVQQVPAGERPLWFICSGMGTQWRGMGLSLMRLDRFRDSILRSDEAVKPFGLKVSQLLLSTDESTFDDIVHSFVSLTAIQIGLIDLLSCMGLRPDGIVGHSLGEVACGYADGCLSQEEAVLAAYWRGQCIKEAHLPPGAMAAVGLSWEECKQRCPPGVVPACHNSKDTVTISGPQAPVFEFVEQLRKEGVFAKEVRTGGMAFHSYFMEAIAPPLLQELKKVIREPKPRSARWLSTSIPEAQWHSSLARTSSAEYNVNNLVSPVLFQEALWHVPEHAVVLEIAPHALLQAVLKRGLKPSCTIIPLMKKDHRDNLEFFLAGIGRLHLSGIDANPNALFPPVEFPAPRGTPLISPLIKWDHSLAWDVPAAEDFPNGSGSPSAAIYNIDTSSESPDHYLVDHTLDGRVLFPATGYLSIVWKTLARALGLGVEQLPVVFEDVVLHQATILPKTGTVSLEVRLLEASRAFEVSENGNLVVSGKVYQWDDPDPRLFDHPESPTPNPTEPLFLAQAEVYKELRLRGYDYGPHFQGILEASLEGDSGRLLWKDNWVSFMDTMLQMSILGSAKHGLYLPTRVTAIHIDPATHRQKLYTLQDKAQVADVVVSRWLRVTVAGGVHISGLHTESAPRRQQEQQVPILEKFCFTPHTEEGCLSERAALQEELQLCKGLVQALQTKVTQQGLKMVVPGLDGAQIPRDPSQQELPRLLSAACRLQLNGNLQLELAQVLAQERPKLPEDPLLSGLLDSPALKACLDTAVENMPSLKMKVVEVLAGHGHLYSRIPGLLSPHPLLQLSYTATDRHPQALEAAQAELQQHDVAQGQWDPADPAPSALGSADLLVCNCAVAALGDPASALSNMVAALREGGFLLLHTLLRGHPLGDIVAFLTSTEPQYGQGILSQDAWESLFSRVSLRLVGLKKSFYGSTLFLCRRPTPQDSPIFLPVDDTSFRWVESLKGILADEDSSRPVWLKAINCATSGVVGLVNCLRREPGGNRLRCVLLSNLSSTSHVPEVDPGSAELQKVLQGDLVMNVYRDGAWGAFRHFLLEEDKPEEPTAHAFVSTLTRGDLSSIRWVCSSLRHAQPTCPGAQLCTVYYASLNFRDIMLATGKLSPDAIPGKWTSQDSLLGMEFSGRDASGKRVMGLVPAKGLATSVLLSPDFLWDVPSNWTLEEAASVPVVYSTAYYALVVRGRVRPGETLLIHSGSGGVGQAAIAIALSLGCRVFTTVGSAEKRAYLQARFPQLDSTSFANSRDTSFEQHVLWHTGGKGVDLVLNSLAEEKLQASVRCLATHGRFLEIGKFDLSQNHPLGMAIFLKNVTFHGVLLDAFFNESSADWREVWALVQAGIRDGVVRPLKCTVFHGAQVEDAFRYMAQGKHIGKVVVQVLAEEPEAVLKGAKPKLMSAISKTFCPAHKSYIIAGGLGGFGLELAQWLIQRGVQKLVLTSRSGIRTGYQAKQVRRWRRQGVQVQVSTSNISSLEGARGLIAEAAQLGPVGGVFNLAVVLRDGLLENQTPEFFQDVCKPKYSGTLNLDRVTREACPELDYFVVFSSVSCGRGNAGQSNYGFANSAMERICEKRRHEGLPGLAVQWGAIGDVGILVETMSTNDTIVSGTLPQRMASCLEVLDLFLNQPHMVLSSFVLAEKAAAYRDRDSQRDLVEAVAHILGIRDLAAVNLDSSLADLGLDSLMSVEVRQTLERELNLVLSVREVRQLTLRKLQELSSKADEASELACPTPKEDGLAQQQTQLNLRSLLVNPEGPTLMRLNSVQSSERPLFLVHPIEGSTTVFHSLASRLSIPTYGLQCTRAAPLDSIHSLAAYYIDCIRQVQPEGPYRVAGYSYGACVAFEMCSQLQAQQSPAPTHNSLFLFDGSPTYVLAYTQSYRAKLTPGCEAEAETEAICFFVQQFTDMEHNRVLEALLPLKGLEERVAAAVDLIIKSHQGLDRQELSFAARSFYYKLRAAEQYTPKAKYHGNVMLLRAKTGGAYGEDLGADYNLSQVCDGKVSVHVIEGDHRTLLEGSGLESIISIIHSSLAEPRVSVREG

[11] = target: T1, Fatty acid synthase; assay: inhibition of human FAS-TE enzyme activity – biochemical, endpoint fluorescence intensity, uHTS hits, dose response (AID 624327); format: functional;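 also: fluorescence from hydrolysis of an O-methyl fluorescein acyl ester substrate by the enzyme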
[12] = target: T2, Sentrin-specific protease 8 (Homo sapiens, UniProt Q96LD8); format: functional
T2 sequence (Q96LD8 whole entry): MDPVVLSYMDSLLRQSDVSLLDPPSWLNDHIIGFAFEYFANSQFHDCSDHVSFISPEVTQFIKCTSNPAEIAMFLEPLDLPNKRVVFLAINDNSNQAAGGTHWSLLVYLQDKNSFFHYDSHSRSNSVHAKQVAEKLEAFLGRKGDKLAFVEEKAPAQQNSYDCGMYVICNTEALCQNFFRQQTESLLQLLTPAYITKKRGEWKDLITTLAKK

[13] = target: T2, Sentrin-specific protease 8; format: functional; remark: listed apart in the source
[14] = target: T3, Carboxy-terminal domain RNA polymerase II polypeptide A small phosphatase 1 (Homo sapiens, UniProt Q9GZU7); assay: CTDSP1 inhibitors, concentration-response, biochemical, absorbance readout, ultra-high-throughput screen actives (AID 540297); format: functional
T3 sequence (Q9GZU7 whole entry): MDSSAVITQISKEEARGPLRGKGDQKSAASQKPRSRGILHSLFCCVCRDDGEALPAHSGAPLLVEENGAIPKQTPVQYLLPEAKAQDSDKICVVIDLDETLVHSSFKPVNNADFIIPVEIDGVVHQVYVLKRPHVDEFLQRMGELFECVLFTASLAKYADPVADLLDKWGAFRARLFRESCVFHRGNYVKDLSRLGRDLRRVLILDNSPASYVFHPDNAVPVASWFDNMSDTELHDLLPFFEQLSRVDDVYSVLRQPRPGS

[15] = target: T4, Polyadenylate-binding protein 1 (Homo sapiens, UniProt P11940); assay: MLLE domain peptide-binding blockers, IC50 – biochemical, fluorescence polarization, FITC-PAM2 peptide, dose response (AID 602259); format: functional; conditions: read-out: IC50_Mean
T4 sequence (P11940 whole entry, the tested form may be a part): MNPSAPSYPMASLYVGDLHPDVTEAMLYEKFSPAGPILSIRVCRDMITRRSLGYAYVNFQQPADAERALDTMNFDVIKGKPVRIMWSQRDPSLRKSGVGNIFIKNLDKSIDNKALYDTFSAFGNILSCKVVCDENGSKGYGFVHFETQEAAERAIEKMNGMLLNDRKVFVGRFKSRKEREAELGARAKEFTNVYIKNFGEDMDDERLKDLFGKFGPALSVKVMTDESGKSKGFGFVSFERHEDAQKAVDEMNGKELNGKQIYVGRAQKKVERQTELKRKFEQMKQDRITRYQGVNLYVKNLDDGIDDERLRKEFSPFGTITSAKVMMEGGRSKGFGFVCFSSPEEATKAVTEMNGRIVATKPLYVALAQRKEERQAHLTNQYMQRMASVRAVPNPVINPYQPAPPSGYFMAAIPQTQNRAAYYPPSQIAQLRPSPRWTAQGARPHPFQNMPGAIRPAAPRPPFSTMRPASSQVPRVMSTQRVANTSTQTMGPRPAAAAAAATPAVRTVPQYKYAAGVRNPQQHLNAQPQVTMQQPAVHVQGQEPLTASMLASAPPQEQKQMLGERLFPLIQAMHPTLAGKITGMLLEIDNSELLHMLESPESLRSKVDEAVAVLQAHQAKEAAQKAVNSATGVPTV

[16] = target: T4, Polyadenylate-binding protein 1; assay: MLLE binding blockers, Cy5 peptide tracer – biochemical, fluorescence polarization, Cy5-PAM2 peptide, secondary, miRNA deadenylation inhibitor project, dose response (AID 602260); format: functional; conditions: read-out: IC50_Mean
[17] = P. falciparum Dd2 growth inhibitors, dose response, SYBR Green, cherry-picked samples (AID 1159567); format: functional, cell-based
[18] = growth inhibition of yeast DHODH-expressing 3D7 parasites – SYBR Green, dry powder samples, dose response (AID 1159570); format: functional, cell-based;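 also: parasite growth measured after 72 hours of compound exposure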
[19] = Dd2 malaria parasite growth inhibition potency – SYBR Green, dry powder samples, dose response (AID 1159566); format: functional, cell-based;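 also: potency for growth inhibition with lower SYBR green DNA signal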
[20] = growth inhibition of PfATP4-mutant resistant parasites – NITD609-resistant line, SYBR Green, dry powder, dose response (AID 1159571); format: functional, cell-based;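 also: parasites synchronized at ring stage by sorbitol before testing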
[21] = blockers of HIV-1 ZM109 envelope-driven cell-cell fusion – HeLa effector, CEM target cells, luciferase, cherry-pick, dose response (AID 652058); format: functional, cell-based;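 also: luciferase signal from HIV-1 Env mediated cell-cell fusion of effector and target cells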
[22] = blockers of HIV-1 envelope-mediated cell-cell fusion – cherry-pick, dose response (AID 652057); format: functional, cell-based
[23] = HIV-1 AD8 envelope cell-cell fusion blockers – cherry-pick, dose response (AID 652062); format: functional, cell-based;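 also: luciferase signal from cell-cell fusion driven by HIV-1 clade B AD8 Env; potency is for inhibitors of fusion seen as a drop in luminescence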
[24] = system: SN12K1; assay: cells; format: functional; conditions: Homo sapiens
[25] = system: P388/ADR; assay: cells; format: functional; conditions: Mus musculus

SMILES: Cc1ccc(Nc2nc3ccccc3s2)c(C)c1
AC50 [1]: 16.1 µM (active)
AC50 [2]: > 52 µM (inactive)
AC50 [3]: 37.8 µM (active)
AC50 [4]: 14.3 µM (active)

SMILES: COC/C=C/C1=CC2=CC(=O)C(C)(OC(=O)c3cnc4ccccc4n3)C(=O)C2=CN1CCOC (centres undefined)
IC50 [12]: 11.5 µM (active)
IC50 [13]: 13.1 µM (active)

SMILES: C=CCN1C(=O)/C(=C2/Sc3ccccc3N2CCCS(=O)(=O)O)SC1=S.c1ccncc1
IC50 [14]: 5.11 µM (active)
IC50 [15]: > 66 µM (inactive)
IC50 [16]: > 66 µM (inactive)

SMILES: Cc1nc2scc(-c3ccc(Cl)cc3)c2c(=O)o1
IC50 [10]: 2.91 µM (active)
IC50 [11]: 1.32 µM (active)

SMILES: CC(=O)c1ccc(N(C(=O)c2ccco2)C(C(=O)NC2CCCC2)c2ccc(N3CCOCC3)cc2)cc1 (centres undefined)
IC50 [10]: 12.5 µM (active)
IC50 [11]: 15.5 µM (active)

SMILES: COc1ccc(N2C(=O)Cc3ccccc3C2=O)cc1
IC50 [12]: 5.08 µM (active)
IC50 [13]: > 100 µM (inactive)

SMILES: CCCNC(=O)c1cc2c(c(-c3cccc(-c4cc5ccccc5o4)c3)n1)[C@H](CCO)N(C(=O)NC(C)C)C2
AC50 [17]: 1.87 µM (active)
AC50 [18]: 2.97 µM (active)
AC50 [19]: 1.75 µM (active)
AC50 [20]: 2.39 µM (active)

SMILES: COc1ccc(NC(=O)Nc2ccc3c(c2)C(=O)N([C@@H](C)CO)C[C@H](C)[C@H](CN(C)S(=O)(=O)c2ccc(Cl)cc2)O3)cc1
AC50 [21]: 4.73 µM (active)
AC50 [22]: 5.71 µM (active)
AC50 [23]: 5.38 µM (active)

SMILES: C[C@H]1CN([C@@H](C)CO)C(=O)Cc2cc(NC(=O)C3CCCCC3)ccc2O[C@H]1CN(C)S(=O)(=O)c1ccc(Cl)cc1
AC50 [21]: 6.75 µM (active)
AC50 [22]: 8.97 µM (active)
AC50 [23]: 22.6 µM (active)

SMILES: C=C1C(=O)O[C@@H]2OC3(C)CCC4C(C)CCC1C42OO3 (some centres undefined)
GI50 [24]: 3.66 µM (inactive)
GI50 [25]: 0.294 µM (active)

SMILES: Cc1ccccc1S(=O)(=O)N(C)C[C@@H]1OCc2ccccc2-c2c(n(C)c3ccccc23)C(=O)N([C@@H](C)CO)C[C@@H]1C
AC50 [17]: 1.63 µM (active)
AC50 [18]: 1.02 µM (active)
AC50 [19]: 0.659 µM (active)
AC50 [20]: 0.812 µM (active)

Further lines, results first:

AC50 [5]: < 0.195 µM (active)
SMILES: CC(C)(C)C(O)C(Cc1ccccc1Cl)n1cncn1 (centres undefined)

AC50 [6]: 0.0562 µM (inconclusive)
AC50 [7]: inconclusive
AC50 [8]: 39.8 µM (inconclusive)
SMILES: CCCC(=O)NNC(=O)CCC(=O)NCc1ccccc1

IC50 [9]: 18.7 µM (inactive)
SMILES: CC(C)(C)C1=CC(O)(c2ccccc2)C=C(C(C)(C)C)C1=O

IC50 [10]: 2.83 µM (active)
IC50 [9]: 3.39 µM (active)
IC50 [11]: 2.42 µM (active)
SMILES: CCc1ccc(NS(=O)(=O)c2cc3c(cc2C)n(C)c(=O)c(=O)n3C)cc1

IC50 [10]: 27.3 µM (inactive)
IC50 [11]: 10.1 µM (active)
SMILES: Cc1ccc([N+](=O)[O-])cc1NC(=O)CCCOc1ccccc1

IC50 [10]: 6.24 µM (active)
IC50 [11]: 9.92 µM (active)
SMILES: O=[N+]([O-])c1ccc(CN2CC(N3CCC(Cc4ccccc4)CC3)CS2(=O)=O)cc1 (centres undefined)

IC50 [14]: 6.38 µM (active)
SMILES: COc1ccc(/C=C2\SC(=S)N(CCC(=O)Nc3cccc(C(=O)O)c3)C2=O)cc1
